Experimental data as given in patent US20150164824A1, “METHODS AND COMPOSITIONS USEFUL FOR IMPROVING BONE AND JOINT HEALTH” (ABBOTT LABORATORIES, priority 2012, published 2015).

Key:
[1] = system: Human osteoclast precursors; assay: OsteoLyse assay: osteoclast differentiation and collagen degradation in vitro; assay type: cell-based; conditions: relative to standard control wells (100%); day seven of culture; FIG. 1
Method: A 96-well OsteoLyse™ assay system (commercially available from Lonza Biosciences, Walkersville, Md.) was used for this evaluation. Specifically, a 96-well OsteoLyse™ plate was coated with fluorophore-derivatized human bone matrix (europium conjugated collagen). Human osteoclast precursors, at a density of 10,000/200 μl of differentiation medium (containing M-CSF and RANK Ligand) were seeded onto the surface of the plate. Triplicate cell culture wells were treated with one of: Curcumin in DMSO; Vitamin K2 in ethanol; combination of Curcumin and Vitamin K2; and alendronate (control). Cell culture wells with only differentiation medium were treated as standard control wells. After six days of culture, old medium was removed and 200 μl of fresh differentiation medium was added to all wells. Twenty-four hours later, on day seven of culture, 10 μl of medium supernatant was used for fluorescence measurement. For the measurement, 10 μl of medium supernatant was added to 100 μl of fluorophore-releasing agent (Lonza Bioscience, Walkersville, Md.) in a black-walled 96-well plate. The samples were briefly mixed and fluorescence was determined using a time-resolved fluorescence fluorimeter (Spectramax M5, available from Molecular Devices, Sunnyvale, Calif., with excitation at 340 nm and emission at 615 nm) over a 400-microsecond time period after an initial delay of 400 microseconds. Osteoclast differentiation in a standard control cell culture well was assumed to be 100% and relative osteoclast differentiation, with respect to control wells, in other cell culture wells was calculated and plotted on the bar graph shown in FIG. 1.

[2] = system: Primary human osteoclast precursors; assay: OsteoAssay plate / CalciFluor assay: bone resorption by osteoclasts; assay type: cell-based; conditions: relative to standard control cells; calcium release, day eight of culture; FIG. 2
Method: A 96-well OsteoAssay™ plate (commercially available from Lonza Biosciences, Walkersville, Md.) was used for this evaluation. Specially, a 96-well OsteoAssay™ plate was coated with a thin-layer of adherent human bone particles. Primary human osteoclast precursors, at a density of 10,000/200 μl of differentiation medium (containing M-CSF and RANK Ligand), were seeded onto the surface of the plate. Triplicate cell culture wells were treated with one of: Curcumin in DMSO; Vitamin K2 in ethanol; combination of Curcumin and Vitamin K2; and alendronate (control). Cell culture wells with only differentiation medium were treated as standard control wells. After six days of culture, old medium was removed and 200 μl of fresh basal resorption medium containing M-CSF and RANK Ligand was added to all wells. Forty-eight hours later, on day eight of culture, 10 μl of medium supernatant was used for calcifluor assay. […] The samples were briefly mixed and fluorescence was determined using a fluorimeter (Spectramax M5, available from Molecular Devices, Sunnyvale, Calif., with excitation at 551 nm and emission at 577 nm). The concentration of calcium in each well was calculated based on the standard curve. […] The relative percentage inhibition of bone resorption, with respect to standard control cells, was calculated and plotted on the bar graph as shown in FIG. 2.

Compound	inhibition of osteoclast differentiation [1]	inhibition of bone resorption [2]
menaquinone [Vitamin K2]	did not significantly inhibit	31.9%
NCCCC(O)(P(=O)(O)O)P(=O)(O)O [Alendronate, reference compound]	53.6%	
COc1cc(/C=C/C(=O)CC(=O)/C=C/c2ccc(O)c(OC)c2)ccc1O [Curcumin, (1E,6E)-1,7-bis(4-hydroxy-3-methoxyphenyl)-1,6-heptadiene-3,5-dione]	did not significantly inhibit	39.7%
